*1 amine or outer side, *2 acyl side, *3 side chain or, on linkers, in order; H or OH if unused. Where a SMILES comes first, the peptide text is derived from it. Bridges are numbered along the chain shown (N, C = ends). [ ]: non-standard residue; d: D form. X34 = O=C(C[C@@H](Cc1ccccc1)C(=O)[*:2])C12CC(CN[*:1])(C1)C2; X75 = CCC[C@H](N[*:1])c1nncn1[C@@H](Cc1ccccc1)C(=O)[*:2]; Phe(4-guanidino) = N=C(N)Nc1ccc(C[C@H](N)C(=O)O)cc1; X77 = O=C([C@H](Cc1cnn(C2CCOCC2)c1)N[*:1])[*:2]; Ala(pyrimidin-5-yl) = N[C@@H](Cc1cncnc1)C(=O)O; NMe3Pal(6-Me) = CN[C@@H](Cc1ccc(C)nc1)C(=O)O; NMePhe(3-Me) = CN[C@@H](Cc1cccc(C)c1)C(=O)O; X3 = CN([C@@H](Cc1cncnc1)C(=O)[*:2])[*:1]; X80 = Nc1nccn1CCC[C@H](N[*:1])C(=O)[*:2]; X11 = CC(C)(F)CC[C@H](N[*:1])C(=O)[*:2]; Nle(5,5-F2) = CC(F)(F)CC[C@H](N)C(=O)O; Phe(2-CN) = N#Cc1ccccc1C[C@H](N)C(=O)O; Phe(3-Me) = Cc1cccc(C[C@H](N)C(=O)O)c1; Ala(cPent) = N[C@@H](CC1CCCC1)C(=O)O; Phe(2-F) = N[C@@H](Cc1ccccc1F)C(=O)O; NMe3Pal = CN[C@@H](Cc1cccnc1)C(=O)O; X1 = O=C(C12CC(CN[*:1])(C1)C2)[*:2]; X12 = CC(=O)NCCCN(CC(=O)[*:2])[*:1]; Aha = [N-]=[N+]=NCC[C@H](N)C(=O)O; Ala(cPr) = N[C@@H](CC1CC1)C(=O)O; NMeF = CN[C@@H](Cc1ccccc1)C(=O)O; PhLac = O=C(O)[C@@H](O)Cc1ccccc1; 3Pal = N[C@@H](Cc1cccnc1)C(=O)O; d3Pal = N[C@H](Cc1cccnc1)C(=O)O; Ahp(2) = CCCCC[C@H](N)C(=O)O; Cba = N[C@@H](CC1CCC1)C(=O)O; hLeu = CC(C)CC[C@H](N)C(=O)O; αMeC = C[C@](N)(CS)C(=O)O; NMeA = CN[C@@H](C)C(=O)O; Nle = CCCC[C@H](N)C(=O)O
Target: KRAS-G12D protein (Homo sapiens, UniProt P01116, G12D)
Sequence (P01116 1-188 isoform P01116-2 G12D): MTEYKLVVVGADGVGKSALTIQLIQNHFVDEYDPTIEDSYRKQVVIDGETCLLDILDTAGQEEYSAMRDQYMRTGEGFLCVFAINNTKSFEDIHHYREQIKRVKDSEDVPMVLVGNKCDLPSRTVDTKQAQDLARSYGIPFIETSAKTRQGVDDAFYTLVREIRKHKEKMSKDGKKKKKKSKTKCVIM
Assay: SOS-mediated nucleotide exchange assay (BODIPY-GDP / Tb-streptavidin TR-FRET)
Format: biochemical

Row | Compound | EC50 [nM]
1 | CCCCC[C@@H]1NC(=O)[C@H](Cc2ccccc2C#N)NC(=O)[C@H](CC2CCC2)NC(=O)[C@H](Cc2cccnc2)NC(=O)[C@H](CCCNC(=N)N)NC(=O)[C@H](Cc2ccccc2)NC(=O)CSC[C@@](C)(C(N)=O)NC(=O)[C@H](Cc2ccccc2)N(C)C1=O [compound 375, cyclo(F-R-3Pal-cBuA-Phe2CN-Ahp-NMeF-aMeCl-ClAc)] ({CH2CO}-FR[3Pal][Cba][Phe(2-CN)][Ahp(2)][NMeF][αMeC]-NH2; thioether N-8) | 57.9
2 | CCCCC[C@@H]1NC(=O)[C@H](Cc2ccc(OC)cc2)NC(=O)[C@H](CC2CCC2)NC(=O)[C@H](Cc2cccnc2)NC(=O)[C@H](CCCNC(=N)N)NC(=O)[C@H](Cc2ccccc2)NC(=O)CSC[C@@](C)(C(N)=O)NC(=O)[C@H](Cc2ccc(C)nc2)N(C)C1=O [compound 377, cyclo(F-R-3Pal-cBuA-TyrOMe-Ahp-NMe3Pal4Me-aMeCl-ClAc)] ({CH2CO}-FR[3Pal][Cba]Y(Me)[Ahp(2)][NMe3Pal(6-Me)][αMeC]-NH2; thioether N-8) | 8.11
3 | CC(C)CC[C@@H]1NC(=O)[C@H](Cc2ccccc2F)NC(=O)[C@H](CC2CC2)NC(=O)[C@H](Cc2cncnc2)NC(=O)[C@H](C)N(C)C(=O)[C@H](Cc2ccccc2)OC(=O)C23CC(CNC(=O)[C@H](Cc4ccccc4)N(C)C1=O)(C2)C3 [compound 260, cyclo(FLac-NMeA-PyrimAla-cPrA-Phe2F-hL-NMeF-amBCP)] (cyclo([Ala(cPr)][Phe(2-F)][hLeu][NMeF][X1][PhLac][NMeA][Ala(pyrimidin-5-yl)])) | 1.95
4 | CCCC[C@@H]1NC(=O)[C@H](Cc2cccnc2)NC(=O)[C@H](C)N(C)C(=O)[C@H](Cc2cccc(C)c2)NC(=O)C23CC(CNC(=O)[C@H](Cc4cccnc4)N(C)C(=O)[C@H](CCCC)NC(=O)[C@H](Cc4ccccc4F)NC1=O)(C2)C3 [compound 166, cyclo(Phe3Me-NMeA-3Pal-Nle-Phe2F-Nle-NMe3Pal-amBCP)] (cyclo([3Pal][Nle][Phe(2-F)][Nle][NMe3Pal][X1][Phe(3-Me)][NMeA])) | 22.3
5 | CCCC[C@@H]1NC(=O)[C@H](Cc2cccnc2)NC(=O)[C@H](C)N(C)C(=O)[C@H](Cc2ccc(OC)cc2)NC(=O)C23CC(CNC(=O)[C@H](Cc4cccnc4)N(C)C(=O)[C@H](CCCC)NC(=O)[C@H](Cc4ccccc4F)NC1=O)(C2)C3 [compound 169, cyclo(TyrOMe-NMeA-3Pal-Nle-Phe2F-Nle-NMe3Pal-amBCP)] (cyclo([3Pal][Nle][Phe(2-F)][Nle][NMe3Pal][X1]Y(Me)[NMeA])) | 757
6 | CCCC[C@@H]1NC(=O)[C@H](C(C)C)NC(=O)[C@H](CC2CCC2)NC(=O)[C@H](Cc2cccnc2)NC(=O)[C@H](CCN=[N+]=[N-])NC(=O)[C@H](Cc2ccccc2)NC(=O)C23CC(CNC(=O)[C@H](Cc4cccnc4)N(C)C1=O)(C2)C3 [compound 113, cyclo(F-DabN3~3Pal-cBuA-V-Nle-NMe3Pal-amBCP)] (cyclo(F[Aha][3Pal][Cba]V[Nle][NMe3Pal][X1])) | 6560
7 | CCCC[C@@H]1NC(=O)[C@H](Cc2ccccc2F)NC(=O)[C@H](CC2CCC2)NC(=O)[C@@H](Cc2cccnc2)NC(=O)[C@H](CCCn2ccnc2N)NC(=O)[C@H](Cc2ccccc2)NC(=O)C23CC(CNC(=O)[C@H](Cc4cccnc4)N(C)C1=O)(C2)C3 [compound 110, cyclo(F-NH2IMNva-d3Pal-cBuA-Phe2F-Nle-NMe3Pal-amBCP)] (cyclo(F[X80][d3Pal][Cba][Phe(2-F)][Nle][NMe3Pal][X1])) | 1.14
8 | CCCCC[C@@H]1NC(=O)[C@H](Cc2ccc(OC)cc2)NC(=O)[C@H](CC2CCC2)NC(=O)[C@H](Cc2ccc(NC(=N)N)cc2)NC(=O)CN(CCCNC(C)=O)C(=O)[C@H](Cc2ccccc2)NC(=O)CSC[C@@](C)(C(N)=O)NC(=O)[C@H](Cc2ccccc2)N(C)C1=O [compound 387, cyclo(F-AcApG-Phe4Gn-cBuA-TyrOMe-Ahp-NMcF-aMeCl-ClAc)] ({CH2CO}-F[X12][Phe(4-guanidino)][Cba]Y(Me)[Ahp(2)][NMeF][αMeC]-NH2; thioether N-8) | 164
9 | CCCC[C@@H]1NC(=O)[C@H](Cc2cccnc2)NC(=O)[C@H](C)N(C)C(=O)[C@H](Cc2ccccc2)OC(=O)C23CC(CNC(=O)[C@H](Cc4cccnc4)N(C)C(=O)[C@H](CCCC)NC(=O)[C@H](Cc4ccccc4F)NC1=O)(C2)C3 [compound 244, cyclo(FLac-NMeA-3Pal-Nle-Phe2F-Nle-NMe3Pal-amBCP)] (cyclo([3Pal][Nle][Phe(2-F)][Nle][NMe3Pal][X1][PhLac][NMeA])) | 36
10 | CCCC[C@@H]1NC(=O)[C@H](Cc2cnc(C#N)nc2)NC(=O)[C@H](C)N(C)C(=O)[C@H](Cc2ccccc2)OC(=O)C23CC(CNC(=O)[C@H](Cc4ccccc4)N(C)C(=O)[C@H](CCCC)NC(=O)[C@H](Cc4ccccc4F)NC1=O)(C2)C3 (single isomer, unassigned) [compound 314, cyclo(FLac-NMeA-AlaPyrim4CN-Nle-Phe2F-Nle-NMeF-amBCP)] | 24.8
11 | C[C@H]1C(=O)N[C@@H](Cc2cncnc2)C(=O)N[C@@H](CC2CC2)C(=O)N[C@@H](Cc2ccccc2F)C(=O)N[C@@H](CCC(C)(F)F)C(=O)N(C)[C@@H](Cc2ccccc2)C(=O)NCC23CC(C2)(C3)C(=O)C[C@@H](Cc2ccccc2)C(=O)N1C [compound 290, cyclo(CPhe-NMeA~PyrimAla-cPrA-Phe2F-Nle3F2-NMeF-amBCP)] (cyclo([Ala(cPr)][Phe(2-F)][Nle(5,5-F2)][NMeF][X34][NMeA][Ala(pyrimidin-5-yl)])) | 2
12 | CCCC[C@@H]1NC(=O)[C@H](Cc2cnn(C3CCOCC3)c2)NC(=O)[C@H](C)N(C)C(=O)[C@H](Cc2ccccc2)OC(=O)C23CC(CNC(=O)[C@H](Cc4ccccc4)N(C)C(=O)[C@H](CCCC)NC(=O)[C@H](Cc4ccccc4F)NC1=O)(C2)C3 [compound 308, cyclo(FLac-NMeA-AlaPyzlTHP4-Nle-Phe2F-Nle-NMeF-amBCP)] (cyclo([NMeA][X77][Nle][Phe(2-F)][Nle][NMeF][X1][PhLac])) | 6.86
13 | C[C@H]1C(=O)N[C@@H](Cc2cncnc2)C(=O)N[C@@H](CCC(C)(F)F)C(=O)N[C@@H](Cc2ccccc2F)C(=O)N[C@@H](CCC(C)(F)F)C(=O)N(C)[C@@H](Cc2ccccc2)C(=O)NCC23CC(C2)(C3)C(=O)O[C@@H](Cc2ccccc2)C(=O)N1C [compound 288, cyclo(FLac-NMeA-PyrimAla-Nle3F2-Phe2F-Nle3F2-NMeF-amBCP)] (cyclo([NMeA][Ala(pyrimidin-5-yl)][Nle(5,5-F2)][Phe(2-F)][Nle(5,5-F2)][NMeF][X1][PhLac])) | 247
14 | Cc1cccc(C[C@H]2C(=O)NCC34CC(C3)(C4)C(=O)O[C@@H](Cc3ccccc3)C(=O)N(C)[C@@H](C)C(=O)N[C@@H](Cc3cncnc3)C(=O)N[C@@H](CC3CC3)C(=O)N[C@@H](Cc3ccccc3F)C(=O)N[C@@H](CCC(C)(C)F)C(=O)N2C)c1 [compound 274, cyclo(FLac-NMeA-PyrimAla-cPrA-Phe2F-hL3F-NMePhe3Me-amBCP)] (cyclo([Ala(cPr)][Phe(2-F)][X11][NMePhe(3-Me)][X1][PhLac][NMeA][Ala(pyrimidin-5-yl)])) | 1
15 | CC(C)CC[C@@H]1NC(=O)[C@H](Cc2ccccc2F)NC(=O)[C@H](CC2CCCC2)NC(=O)[C@H](Cc2cncnc2)NC(=O)[C@H](C)N(C)C(=O)[C@H](Cc2ccccc2)OC(=O)C23CC(CNC(=O)[C@H](Cc4cncnc4)N(C)C1=O)(C2)C3 [compound 335, cyclo(FLac-NMeA-PyrimAla-cPeA-Phe2F-hL-NMeAlaPyrim-amBCP)] (cyclo([Ala(cPent)][Phe(2-F)][hLeu][X3][X1][PhLac][NMeA][Ala(pyrimidin-5-yl)])) | 1
16 | CCCCC[C@@H]1NC(=O)[C@H](Cc2ccc(OC)cc2)NC(=O)[C@H](CC2CCC2)NC(=O)[C@H](Cc2ccc(NC(=N)N)cc2)NC(=O)[C@H](CCCNC(=N)N)NC(=O)[C@H](Cc2ccccc2)NC(=O)CSC[C@@](C)(C(N)=O)NC(=O)[C@H](Cc2ccccc2)N(C)C1=O [compound 346, cyclo(F-R-Phe4Gn-cBuA-TyrOMe-Ahp-NMeF-aMeCl-ClAc)] ({CH2CO}-FR[Phe(4-guanidino)][Cba]Y(Me)[Ahp(2)][NMeF][αMeC]-NH2; thioether N-8) | 1.24
17 | C[C@H]1C(=O)N[C@@H](Cc2cncnc2)C(=O)N[C@@H](CC2CC2)C(=O)N[C@@H](Cc2ccccc2F)C(=O)N[C@@H](CCC(C)(C)F)C(=O)N(C)[C@@H](Cc2ccccc2)C(=O)NCC23CC(C2)(C3)C(=O)O[C@@H](Cc2ccccc2)C(=O)N1C [compound 277, cyclo(FLac-NMeA-PyrimAla-cPrA-Phe2F-hL3F-NMeF-amBCP)] (cyclo([Ala(cPr)][Phe(2-F)][X11][NMeF][X1][PhLac][NMeA][Ala(pyrimidin-5-yl)])) | 2
18 | CCC[C@@H]1NC(=O)[C@H](Cc2ccc(OC)cc2)NC(=O)[C@H](CC2CCC2)NC(=O)[C@H](Cc2cccnc2)NC(=O)[C@H](CCCNC(=N)N)NC(=O)[C@H](Cc2ccccc2)NC(=O)CSC[C@H](C(N)=O)NC(=O)[C@H](Cc2ccccc2)n2cnnc21 [SEQ ID NO: 64, cyclo(F-R-3Pal-cBuA- TyrOMe-124triazole- dC-ClAc)] ({CH2CO}-FR[3Pal][Cba]Y(Me)[X75][dC]-NH2; thioether N-7) | 2820
19 | CCCCC[C@@H]1NC(=O)[C@H](Cc2ccc(OC)cc2)NC(=O)[C@H](CC2CCC2)NC(=O)[C@H](Cc2cccnc2)NC(=O)[C@H](CCCNC(=N)N)NC(=O)[C@H](Cc2ccccc2)NC(=O)CSC[C@@](C)(C(N)=O)NC(=O)[C@H](Cc2ccccc2)N(C)C1=O [compound 347, cyclo(F-R~3Pal-cBuA-TyrOMe-Ahp-NMeF-aMeCl-ClAc)] | 5.72
20 | CCCC[C@@H]1NC(=O)[C@H](Cc2cccnc2)NC(=O)[C@H](C)N(C)C(=O)[C@H](Cc2ccccc2)NC(=O)C23CC(CNC(=O)[C@H](Cc4cccnc4)N(C)C(=O)[C@H](CCCC)NC(=O)[C@H](Cc4ccccc4F)NC1=O)(C2)C3 [compound 162, cyclo(F-NMeA-3Pal-Nle-Phe2F-Nle-NMe3Pal-amBCP)] (cyclo(F[NMeA][3Pal][Nle][Phe(2-F)][Nle][NMe3Pal][X1])) | 313
21 | CCCC[C@@H]1NC(=O)[C@H](Cc2cccnc2)NC(=O)[C@H](CCCNC(=N)N)NC(=O)[C@H](Cc2ccccc2)NC(=O)CSC[C@@](C)(C(=O)N(C)C)NC(=O)[C@H](Cc2cccnc2)N(C)C(=O)[C@H](CCCC)NC(=O)[C@H](Cc2ccccc2F)NC1=O [compound 184, cyclo(F-R-3Pal-Nle-Phe2F-Nle-NMe3Pal-aMeC7-ClAc)] ({CH2CO}-FR[3Pal][Nle][Phe(2-F)][Nle][NMe3Pal][αMeC]-NMe2; thioether N-8) | 728
